Measured values: US20120046353A1 (priority 2010, published 2012)

Molecular target: neuraminidase of Tamiflu-resistant novel influenza virus (point mutation H→Y) (Influenza A virus, UniProt C3W5S3, H275Y)

Row | Structure (SMILES) | Inhibitory activity against neuraminidase of Tamiflu-resistant novel influenza virus, in words
1 | COc1c(C)c(O)c(C)c(O)c1C(=O)/C=C/c1ccc(O)cc1 [Compound 4, 4,2′,4′-trihydroxy-6′-methoxy-3′,5′-dimethylchalcone] | excellent inhibitory activity
2 | COc1c(C)c(O)c(C)c(O)c1C(=O)/C=C/c1ccccc1 [Compound 5, 2′,4′-dihydroxy-6′-methoxy-3′,5′-dimethylchalcone] | excellent inhibitory activity
3 | COc1cc(O)c(C)c(O)c1C(=O)/C=C/c1ccccc1 [Compound 8, 2′,4′-dihydroxy-3′-methyl-6′-methoxychalcone] | excellent inhibitory activity
4 | COc1c(C)c(O)c(C)c(O)c1C(=O)/C=C/c1ccccc1O [Compound 14, 2,2′,4′-trihydroxy-6′-methoxy-3′,5′-dimethylchalcone] | excellent inhibitory activity
